Test [1] concerns WiDr, SW620, HT29, HEK_LTV, and T84 cell lines. As to the kind of experiment: cell proliferation and growth inhibition assay (CCK-8), cell line panel. It is filed as cell-based, human. As to conditions: 72 h, FIG. 12. The procedure:
Cell Proliferation and Growth Inhibition Assay. HT-29, HCT-116, WiDr, SW620, SW480, T84, A549, MCF-7, HepG2, Hela cells were cultured in respective growth medium. Cells of log phase were used. 3000-5000 cells/well were seeded in 96-well plates with a 100 μL volume. After 24 h, Compounds were dissolved to […] with DMSO, and a 3-fold serial dilution of the compounds from 5×10^−5 M to […] was performed. 2 μL of compound solution was added to 998 μL of growth medium, the mixture was vortexed sufficiently. 100 μL of the mixture was correspondingly added to the 96-well plate. 2 μL DMSO instead of compound solution was used as the 0% inhibitor control. After coincubation for 72 h, the old medium was removed and 100 μL of 10% CCK-8 in culture medium was added. 2 h later the plates were read in the microplate reader (Bio-Rad) at 450 nm. The data was calculated using Graph Pad Prism version 5.0. The IC50 were fitted using a nonlinear regression model with a sigmoidal dose response.

The test system of test [2] is Wnt/β-catenin pathway. As to the kind of experiment: dual-luciferase TCF/LEF reporter assay, LiCl-activated, HEK293 cells. It is filed as cell-based. The procedure:
Lithium chloride (LiCl), which has been previously established as an activator of the Wnt/β-catenin pathway through its direct and indirect effects on GSK3β was used for pathway activation. The inhibition of the Wnt/β-catenin pathway by a compound may be determined after its incubation with cells for 24 hours.
The assay provided herein is a dual-luciferase assay to measure Wnt/β-catenin pathway activation using a TCF/LEF responsive reporter construct similar to that described previously (Thorne et al., 2010).

[3] abbreviates: Homo sapiens, HEK293, 24 h, At 1 μM concentration, remaining Wnt signaling activity, read-out: RLU % (Relative Light Units in reporter gene assays).
Where [4] appears, read: Homo sapiens, HEK293, Table 3, values in nM, read-out: IC50.
Where [5] appears, read: Homo sapiens, HEK293, Table 6, read-out: IC50 (nM) or remaining activity at 1 μM: IC50.
Setting [6] is: Homo sapiens, HEK293, Table 3, values in μM, read-out: IC50.
Setting [7] is: Homo sapiens, HEK293, Table 5, read-out: IC50 (nM) or remaining activity at 1 μM: IC50.

Read-outs that look alike come from different tables or passages of the source.

We go through 31 molecules from US12378220B2, “WNT signaling pathway inhibitors for treatments of disease” (University of Maryland, Baltimore, priority 2016, dated 2025).

By IC50 is commonly meant the midpoint of a concentration-inhibition curve.

Turning to `Cc1c(C(=O)Nc2ccc3ccccc3n2)cnn1C(C)(C)C` [YW2049, 1-(Tert-butyl)-5-methyl-N-(quinolin-2-yl)-1H-pyrazole-4-carboxamide], the growth inhibitory activity result in test [1] was “micromolar growth inhibitory activity”.
On to `CC(C)c1c(C(=O)Nc2ccc3ccccc3n2)nnn1-c1ccccc1F` [YW2020, 1-(2-Fluorophenyl)-5-isopropyl-N-(quinolin-2-yl)-1H-1,2,3-triazole-4-carboxamide], for which the activity at 1 µM in test [2] (setting [3]) turned out to be 17.7%. In addition, in test [2] (setting [4]), the IC50 is 177 nM.
For the molecule `Cc1c(C(=O)Nc2ccc3ccccc3n2)nnn1-c1ccccc1F` [Compound 33, 1-(2-Fluorophenyl)-5-methyl-N-(quinolin-2-yl)-1H-1,2,3-triazole-4-carboxamide], the IC50 in test [2] (setting [5]) was 6.5 nM.
Turning to `Cc1c(C(=O)Nc2ccc3ccccc3n2)nnn1-c1ccccc1N1CCOCC1` [YW1155, 5-Methyl-1-(2-morpholinophenyl)-N-(quinolin-2-yl)-1H-1,2,3-triazole-4-carboxamide], in test [2] (setting [3]), the activity at 1 µM was determined as 99.8%.
As to `Cc1ccccc1-n1nnc(C(=O)Nc2ccc3ccccc3n2)c1C` [Compound 28, 5-Methyl-N-(quinolin-2-yl)-1-(o-tolyl)-1H-1,2,3-triazole-4-carboxamide], the IC50 in test [2] (setting [5]) was 6.3 nM.
Regarding `Cc1c(C(=O)Nc2ccc3ccccc3n2)nnn1-c1cccc(Cl)c1` [YW1173, 1-(3-Chlorophenyl)-5-methyl-N-(quinolin-2-yl)-1H-1,2,3-triazole-4-carboxamide], the activity at 1 µM in test [2] (setting [3]) was 26.3%. For the same molecule, the IC50 in test [2] (setting [4]) was determined as 731 nM.
In the case of `Cc1ccc(-n2nnc(C(=O)Nc3cc(C)no3)c2C)cc1` [YW1124, 5-Methyl-N-(3-methylisoxazol-5-yl)-1-(p-tolyl)-1H-1,2,3-triazole-4-carboxamide], the activity at 1 µM in test [2] (setting [3]) worked out at 121%. Besides, in test [2] (setting [6]), the IC50 was found to be 48000 nM.
As to `Cc1c(C(=O)Nc2ccc3ccccc3n2)nnn1-c1ccccc1-c1ccccc1` [Compound 38, 1-([1,1′-biphenyl]-2-yl)-5-methyl-N-(quinolin-2-yl)-1H-1,2,3-triazole-4-carboxamide], the IC50 in test [2] (setting [5]) came to 52000 nM.
On to `Cc1ccccc1-n1nnc(C(=O)Nc2ccc3ccccc3c2)c1C` [Compound 31, 5-Methyl-N-(naphthalen-2-yl)-1-(o-tolyl)-1H-1,2,3-triazole-4-carboxamide], for which the IC50 in test [2] (Table 7, read-out: IC50) stood at 471 nM.
On to `Cc1ccc(-n2nnc(C(=O)Nc3ccc4ccccc4n3)c2C)cc1` [YW1127, 5-Methyl-N-(quinolin-2-yl)-1-(p-tolyl)-1H-1,2,3-triazole-4-carboxamide], for which the activity at 1 µM in test [2] (setting [3]) turned out to be 56.4%.
As for `Cc1ccc(-n2c(C)cc(C(=O)Nc3ccccn3)c2C)cc1` [Compound 14, 2,5-dimethyl-N-(pyridin-2-yl)-1-(p-tolyl)-1H-pyrrole-3-carboxamide], in test [2] (Homo sapiens, HEK293, Table 4, @ 1 μM, read-out: IC50 (nM) or remaining activity at 1 μM: remaining activity), the activity at 1 µM is 79.8%.
For the molecule `Cc1ccc(-n2nnc(C(=O)Nc3ccccn3)c2C)cc1` [YW1119, 5-Methyl-N-(pyridin-2-yl)-1-(p-tolyl)-1H-1,2,3-triazole-4-carboxamide], the activity at 1 µM in test [2] (setting [3]) amounted to 106%.
Consider `Cc1ccc(-n2nnc(C(=O)Nc3nc(-c4ccccc4)c(-c4ccccc4)s3)c2C)cc1` [YW1125, N-(4,5-diphenylthiazol-2-yl)-5-methyl-1-(p-tolyl)-1H-1,2,3-triazole-4-carboxamide], for which the activity at 1 µM in test [2] (setting [3]) was 55.1%.
On to `CC(=O)c1ccccc1-n1nnc(C(=O)Nc2ccc3ccccc3n2)c1C` [YW1181, 1-(2-Acetylphenyl)-5-methyl-N-(quinolin-2-yl)-1H-1,2,3-triazole-4-carboxamide], for which, in test [2] (setting [3]), the activity at 1 µM came out at 18.1%. In addition, the IC50 in test [2] (setting [4]) was 814 nM.
Taken in the same sequence, the figures for `CCc1c(C(=O)Nc2ccc3ccccc3n2)nnn1-c1ccccc1F` [YW2018, 5-Ethyl-1-(2-fluorophenyl)-N-(quinolin-2-yl)-1H-1,2,3-triazole-4-carboxamide] were 2.3% and 47 nM.
As for `Cc1ccc(-n2nnc(C(=O)Nc3nc(-c4ccccc4)c(-c4ccccc4)s3)c2C)cc1` [Compound 22, N-(4,5-diphenylthiazol-2-yl)-5-methyl-1-(p-tolyl)-1H-1,2,3-triazole-4-carboxamide], the IC50 in test [2] (setting [7]) stood at 1000 nM.
Regarding `Cc1c(C(=O)Nc2ccc3ccccc3n2)nnn1-c1ccccc1Br` [Compound 36, 1-(2-Bromophenyl)-5-methyl-N-(quinolin-2-yl)-1H-1,2,3-triazole-4-carboxamide], the IC50 in test [2] (setting [5]) worked out at 10 nM.
`Cc1c(C(=O)Nc2ccc3ccccc3n2)nnn1-c1cccc2ccccc12` [YW1151, 5-Methyl-1-(naphthalen-1-yl)-N-(quinolin-2-yl)-1H-1,2,3-triazole-4-carboxamide]: the activity at 1 µM in test [2] (setting [3]) is 79.3%. For the same molecule, the IC50 in test [2] (setting [6]) came out at 4000 nM.
With `Cc1c(C(=O)Nc2ccc3ccccc3n2)nnn1-c1ccc(F)cc1[N+](=O)[O-]` [Compound 41, 1-(4-Fluoro-2-nitrophenyl)-5-methyl-N-(quinolin-2-yl)-1H-1,2,3-triazole-4-carboxamide], in test [2] (setting [5]), the IC50 stood at 5000 nM.
On to “1-(2-Fluorophenyl)-5-methyl-N-(quinolin-2-yl)-1H-pyrazole-4-carboxamide [YW2035]”, for which, in test [1], the growth inhibitory activity entry is “micromolar growth inhibitory activity”.
Turning to `Cc1c(C(=O)Nc2ccc3ccccc3n2)nnn1-c1ccccc1F` [YW1159, 1-(2-Fluorophenyl)-5-methyl-N-(quinolin-2-yl)-1H-1,2,3-triazole-4-carboxamide], the activity at 1 µM in test [2] (setting [3]) is 1.4%. In addition, the concentration for half-maximal inhibition (IC50) in test [2] (setting [4]) is 6.5 nM.
For the molecule `Cc1ccc(-n2c(C)cc(C(=O)Nc3ccccn3)c2C)cc1` [YW1109, 2,5-Dimethyl-N-(pyridin-2-yl)-1-(p-tolyl)-1H-pyrrole-3-carboxamide], the activity at 1 µM in test [2] (setting [3]) is 79.8%.
With `Cc1ccc(-n2nnc(C(=O)Nc3ccc4ccccc4n3)c2C)cc1` [Compound 27, 5-Methyl-N-(quinolin-2-yl)-1-(p-tolyl)-1H-1,2,3-triazole-4-carboxamide], the activity at 1 µM in test [2] (Homo sapiens, HEK293, Table 6, @ 1 μM, read-out: IC50 (nM) or remaining activity at 1 μM: remaining activity) was 56.4 ± 2%.
For the molecule `Cc1ccccc1-n1nnc(C(=O)Nc2nc(-c3ccccc3)cs2)c1C` [YW1183, 5-Methyl-N-(4-phenylthiazol-2-yl)-1-(o-tolyl)-1H-1,2,3-triazole-4-carboxamide], the activity at 1 µM in test [2] (setting [3]) is 90.8%. Further, the IC50 in test [2] (setting [6]) is 22000 nM.
Regarding `Cc1ccc(-n2nnc(C(=O)Nc3ccc4c(=O)cc(C)oc4c3)c2C)cc1` [Compound 26, 5-Methyl-N-(2-methyl-4-oxo-4H-chromen-7-yl)-1-(p-tolyl)-1H-1,2,3-triazole-4-carboxamide], the IC50 in test [2] (setting [7]) is greater than 1000 nM.
In the case of `COc1ccccc1-n1nnc(C(=O)Nc2ccc3ccccc3n2)c1C` [Compound 35, 1-(2-Methoxyphenyl)-5-methyl-N-(quinolin-2-yl)-1H-1,2,3-triazole-4-carboxamide], in test [2] (setting [5]), the IC50 worked out at 88 nM.
The same measure, in the same setting: the value for `Cc1ccc(-n2nnc(C(=O)Nc3ccc4ccccc4n3)c2C)c(C)c1` [Compound 32, 1-(2,4-Dimethylphenyl)-5-methyl-N-(quinolin-2-yl)-1H-1,2,3-triazole-4-carboxamide] was 130 nM.
On to `Cc1ccc(-n2nnc(C(=O)NCc3ccccn3)c2C)cc1` [YW1121, 5-Methyl-N-(pyridin-2-ylmethyl)-1-(p-tolyl)-1H-1,2,3-triazole-4-carboxamide], for which, in test [2] (setting [3]), the activity at 1 µM stood at 92.1%.
Turning to `CCc1c(C(=O)Nc2ccc3ccccc3n2)nnn1-c1ccccc1F` [Compound 45, 5-Ethyl-1-(2-fluorophenyl)-N-(quinolin-2-yl)-1H-1,2,3-triazole-4-carboxamide], in test [2] (Table 7, read-out: IC50), the IC50 was found to be 47 nM.
On to `Cc1c(C(=O)Nc2ccc3ccccc3n2)nnn1-c1ccccc1-c1ccccc1` [YW1180, 1-([1,1′-biphenyl]-2-yl)-5-methyl-N-(quinolin-2-yl)-1H-1,2,3-triazole-4-carboxamide], for which the activity at 1 µM in test [2] (setting [3]) was determined as 104%. Besides, in test [2] (setting [6]), the IC50 was found to be 52000 nM.
`Cc1c(C(=O)Nc2ccc3ccccc3n2)nnn1-c1ccccc1Br` [YW1169, 1-(2-Bromophenyl)-5-methyl-N-(quinolin-2-yl)-1H-1,2,3-triazole-4-carboxamide]: the activity at 1 µM in test [2] (setting [3]) came out at 3.2%. Besides, the IC50 in test [2] (setting [4]) is 10 nM.
